Patent publication US20260115202A1, “TOPICAL COMPOSITIONS COMPRISING AN ESTETROL COMPONENT AND USE OF SAID COMPOSITIONS FOR WOUND HEALING” (NEURALIS SA, priority 2022, published 2026)

What was measured:
[1] = test system: Female wild-type (C57BL/6J) 8 weeks old mice; test: In vivo LPS-induced delayed wound healing model: uterine weight and morphology; conditions: topical, 60 μl on days -1 to 4, LPS mice, assessed at day 5
Source text: (§1) The in vivo LPS-induced delayed wound healing model was reproduced as previously described (Crompton R, Williams H, Ansell D, Campbell L, Holden K, Cruickshank S, Hardman M J. Oestrogen promotes healing in a bacterial LPS model of delayed cutaneous wound repair. Lab Invest. 2016 April, 96 (4): 439-49).
(§2) Female wild-type (C57BL/6J) 8 weeks old mice were split into six groups (6 animals per experimental group): • Double placebo control (no LPS, placebo treatment), • LPS control (LPS, placebo treatment), • LPS with topical EstroGel (estradiol gel, contains 0.06% 17β-estradiol as hemihydrate in a hydro-alcoholic gel), • LPS with topical AG24 (E4 at 0.5%), • LPS with topical AG25 (E4 at 0.22%), • LPS with topical AG26 (E4 at 0.06%).
(§3) The day prior to wounding (day −1), all the animals were weighed and anaesthetised using oxygen and isoflurane (flow rate 1.25-2 L with 2-2.5% isoflurane depending on clinical signs). Animals were shaved and dorsal areas prepped. Wound positions (2 wounds) were marked on the dorsum of each animal. Animals received a first subcutaneous injection of 2 μg K. pneumoniae-derived LPS diluted in DPBS (1 μg per wound: Sigma Aldrich, UK: L4268) at the wound site, except the double placebo group that received DPBS only. A thin layer of EstroGel, AG24, AG25, AG26 or placebo were then applied to the dorsum of each animal, measured as 60 μl total (30 μl/wound). […]

[2] = test system: LPS-induced delayed wound healing mice model; test: In vivo LPS-induced delayed wound healing model: wound histology and immunohistochemistry; conditions: versus LPS/PBO
Source text: as §1, §2
as §3, with “μl/wound). Animals recovered in a warming cabinet and were then single housed in fresh cages containing alpha pad, RO water, food, mash and a house. On day 0 (24 hours after first anaesthesia), mice were re-anaesthetised and dorsal skin cleaned with chlorhexidine wipes. Two 6 mm dorsal excisions were created. 2 μg LPS (1 μg per wound) was subcutaneously injected at the wound site as above, except for the double placebo mice that were injected with DPBS.” for “μl/wound).”
These are expressed in the increase in uterus weight. Next, we evaluated wound closure from histological samples. […] The degree of re-epithelialisation was determined as the length of neo-epidermis divided by the distance between the wound margins, multiplied by 100.

[3] = test system: LPS-induced delayed wound healing mice model; test: In vivo LPS model, single or repeated administration: wound histology at day 3; conditions: single administration
Source text: The in vivo LPS treatment protocol (delayed wound healing model) as presented in example 4 has been repeated with the following groups of animals: • Double placebo group (untreated control). • LPS control (LPS, placebo treatment). • LPS with topical EstroGel (estradiol gel, contains 0.06% 17β-estradiol as hemihydrate in a hydro-alcoholic gel), repeated administration for 4 days. • LPS with topical AG26 (E4 at 0.06%), single administration. • LPS with topical AG26 (E4 at 0.06%), repeated administration for 4 days. • LPS with topical AG28 (E4 at 0.06%), single administration. • LPS with topical AG28 (E4 at 0.06%), repeated administration for 4 days. On day 0 only (single administration), or on days −1, 0, 1 and 2 (repeated administration), topical EstroGel. AG26. AG28 or corresponding placebo was applied in a thin layer over the top of the wounds (60 μl total: 30 μl/wound) during observations. On day 3, mice were humanely culled via rising concentration of CO2 and cervical dislocation. Uteri as well as non-wounded and wound tissue samples were processed as described under example 4. […] Next, we evaluated wound closure from histological samples (FIG. 13). Histological sections were subjected to K14 immunohistochemistry to visualise the newly forming epidermis.

[4] = test system: wound expression of M1 (TNF-α and IL1-β) and M2 (Fizz1 and Ym1) markers; test: In vivo LPS model: qPCR of M1 and M2 markers in wound tissue RNA; set-up: species or system mice; conditions: versus LPS/PBO control
Source text: Female wild-type (C57BL/6J) 8 weeks old mice were split into six groups (6 animals per experimental group): • Double placebo control (no LPS, placebo treatment), • LPS control (LPS, placebo treatment), • LPS with topical EstroGel (estradiol gel, contains 0.06% 17β-estradiol as hemihydrate in a hydro-alcoholic gel), • LPS with topical AG24 (E4 at 0.5%), • LPS with topical AG25 (E4 at 0.22%), • LPS with topical AG26 (E4 at 0.06%). The day prior to wounding (day -1), all the animals were weighed and anaesthetised using oxygen and isoflurane (flow rate 1.25-2 L with 2-2.5% isoflurane depending on clinical signs). Animals were shaved and dorsal areas prepped. Wound positions (2 wounds) were marked on the dorsum of each animal. […] A thin layer of EstroGel, AG24, AG25, AG26 or placebo were then applied to the dorsum of each animal, measured as 60 μl total (30 μl/wound). […] For isolation of RNA and quantitative real time PCR murine macrophages were collected in Trizol and RNA was isolated using a Trizol plus RNA isolation kit (Invitrogen. Thermo Fisher) according to the manufacturer's instructions. […] Quantitative real-time PCR was carried out using 2×Takyon SYBR Green mastermix and a CFX Connect thermocycler. […]

C[C@]12CC[C@@H]3c4ccc(O)cc4CC[C@H]3[C@@H]1[C@@H](O)[C@@H](O)[C@@H]2O [Formulation E4, 1,3,5 (10)-estratrien-3,15alpha, 16alpha, 17beta-tetrol]
uterine weight and morphology [1]: affects uterine weight in a dose-dependent manner | wound re-epithelialisation ([2]; day 5, K14 immunohistochemistry): promotes re-epithelialization | wound macrophage numbers ([2]; day 5, immunohistochemistry): reduced numbers of wound macrophages | wound neutrophil numbers ([2]; day 5, immunohistochemistry): reduced numbers of wound neutrophils | numbers of wound neutrophils [3]: reduced numbers of wound neutrophils | wound M1 marker expression (TNF-α, IL1-β) [4]: reduced M1 marker expression | wound M2 marker expression (Fizz1, Ym1) [4]: increased M2 marker expression
